Experiments:
HEC-116 cells = experiment: In vitro anti-proliferative activity, CelltiterGlo, ray design; format: cell-based, human; settings: HEC-116, single agent, 96 hours; brackets: interval
Experimental: The human endometrium adenocarcinoma cell line HEC-116 cell line was purchased at JCRB (Ref number JCRB1124 Batch 11072005). The HEC-116 cells were cultured in MEMa medium supplemented with 15% FBS and 2 mM L-Glutamine.
Compounds (I) and (II) dilutions were prepared according to the material and methods of example 1. The final concentrations tested were defined by ray design method described below. The DMSO concentration was 0.1% in controls and in all treated wells.
(§1) A ray design method was used allowing the characterization of the interaction of the two compounds for several fixed proportion in the mixture. The ray design includes one ray for each single agent and 19 combination rays.
(§2) HEC-116 cells were plated at 3,000 cells/well in 384-well plates in appropriate culture medium and incubated for 6 hours at 37° C., 5% CO2. […] Cell growth was evaluated by measuring intracellular ATP using CelltiterGlo® reagent (Promega) according to the manufacturer's protocol. Briefly, CellTiterGlo® was added to each plate, incubated for 1 hour then luminescent signal was read on the MicroBeta Luminescent plate reader.
Three experiments have been performed on this cell line. For each experiment, two 384-well plates were used allowing working with two replicates for combination rays and with four replicates for single agent rays. […]

PC-3 cells = experiment: as above; format: cell-based, human; settings: PC-3, single agent, 96 hours; brackets: interval
Experimental: The human prostate cancer PC-3 cell line was purchased at ATCC (Ref number CRL-1435). The PC-3 cells were cultured in DMEM High Glucose medium supplemented with 10% FBS and 2 mM L-Glutamine.
They were diluted serially, in DMSO following a 3 or 3.3-fold dilution step: then each solution was diluted 50-fold in culture medium containing 10% serum before being added onto cells with a 20-fold dilution factor. The DMSO concentration was 0.1% in controls and in all treated wells.
as §1
as §2, with “PC-3” for “HEC-116”, “1,000” for “3,000”, “reader. Three experiments have been performed on the cell line. […]” for “reader.”
Growth inhibition percentage (GI %) was calculated according to the following equation: […]

mTOR [1] = target: T1, mTOR (Homo sapiens, UniProt P42345); settings: PI3Kβ versus mTOR; cited from earlier work
PI3Kdelta = PI3Kdelta (Homo sapiens, UniProt O00329); settings: PI3Kβ versus PI3Kdelta; cited from earlier work
294 other kinases = settings: at 10 μM; cited from earlier work
PI3Kalpha = PI3Kalpha (Homo sapiens, UniProt P42336); settings: PI3Kβ versus PI3Kalpha; cited from earlier work
PI3Kgamma = PI3Kgamma (Homo sapiens, UniProt P48736); settings: PI3Kβ versus PI3Kgamma; cited from earlier work
mTOR [2] = target: T1, mTOR; experiment: mTOR inhibition; format: biochemical; settings: up to 10 μM

PI3Kalpha, sequence (P42336 whole entry, species assumed): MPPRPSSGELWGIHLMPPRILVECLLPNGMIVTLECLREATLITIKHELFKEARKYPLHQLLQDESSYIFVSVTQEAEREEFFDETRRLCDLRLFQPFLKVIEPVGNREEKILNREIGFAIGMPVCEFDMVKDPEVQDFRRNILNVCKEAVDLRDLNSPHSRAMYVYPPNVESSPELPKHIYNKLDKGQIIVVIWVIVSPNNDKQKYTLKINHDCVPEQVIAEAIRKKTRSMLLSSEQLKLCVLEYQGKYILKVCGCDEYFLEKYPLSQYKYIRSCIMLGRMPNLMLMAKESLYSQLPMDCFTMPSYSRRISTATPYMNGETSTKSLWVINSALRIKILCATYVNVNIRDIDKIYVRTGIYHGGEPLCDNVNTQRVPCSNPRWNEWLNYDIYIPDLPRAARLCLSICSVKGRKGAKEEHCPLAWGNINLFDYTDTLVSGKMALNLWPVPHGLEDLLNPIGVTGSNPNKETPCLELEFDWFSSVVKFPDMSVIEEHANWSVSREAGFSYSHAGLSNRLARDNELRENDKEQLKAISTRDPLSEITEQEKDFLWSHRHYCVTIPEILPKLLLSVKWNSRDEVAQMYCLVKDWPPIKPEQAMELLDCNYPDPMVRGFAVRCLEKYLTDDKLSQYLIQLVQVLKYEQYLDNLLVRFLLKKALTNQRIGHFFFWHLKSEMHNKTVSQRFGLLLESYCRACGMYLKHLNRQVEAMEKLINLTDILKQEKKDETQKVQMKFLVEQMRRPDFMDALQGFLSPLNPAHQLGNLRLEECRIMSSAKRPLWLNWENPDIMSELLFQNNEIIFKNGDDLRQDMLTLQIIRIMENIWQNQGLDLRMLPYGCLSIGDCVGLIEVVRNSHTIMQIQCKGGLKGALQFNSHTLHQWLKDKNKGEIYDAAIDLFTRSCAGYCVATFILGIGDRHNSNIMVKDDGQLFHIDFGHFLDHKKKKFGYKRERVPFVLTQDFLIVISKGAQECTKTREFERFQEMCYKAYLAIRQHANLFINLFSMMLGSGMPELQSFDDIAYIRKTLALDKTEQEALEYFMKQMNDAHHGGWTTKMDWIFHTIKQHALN
PI3Kalpha, sequence (P27986 whole entry partner, species assumed): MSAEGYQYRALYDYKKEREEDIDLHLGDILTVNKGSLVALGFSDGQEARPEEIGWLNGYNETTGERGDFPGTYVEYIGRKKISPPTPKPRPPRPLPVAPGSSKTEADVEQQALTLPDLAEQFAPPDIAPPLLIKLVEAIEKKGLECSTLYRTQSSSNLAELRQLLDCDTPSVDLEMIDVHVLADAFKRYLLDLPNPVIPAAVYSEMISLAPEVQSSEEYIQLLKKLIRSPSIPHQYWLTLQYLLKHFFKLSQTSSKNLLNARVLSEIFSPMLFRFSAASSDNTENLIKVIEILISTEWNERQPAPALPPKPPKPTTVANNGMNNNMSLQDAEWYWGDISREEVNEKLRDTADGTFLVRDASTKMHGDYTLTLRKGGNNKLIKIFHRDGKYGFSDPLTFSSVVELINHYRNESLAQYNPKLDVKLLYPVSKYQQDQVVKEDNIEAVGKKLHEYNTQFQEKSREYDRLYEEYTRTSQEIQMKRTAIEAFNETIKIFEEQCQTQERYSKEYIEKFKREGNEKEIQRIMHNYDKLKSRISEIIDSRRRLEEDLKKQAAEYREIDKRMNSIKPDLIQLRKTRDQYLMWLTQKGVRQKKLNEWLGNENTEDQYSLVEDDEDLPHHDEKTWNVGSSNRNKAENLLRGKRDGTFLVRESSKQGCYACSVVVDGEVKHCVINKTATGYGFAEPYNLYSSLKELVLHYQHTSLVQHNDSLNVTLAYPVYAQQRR
PI3Kdelta, sequence (O00329 whole entry, species assumed): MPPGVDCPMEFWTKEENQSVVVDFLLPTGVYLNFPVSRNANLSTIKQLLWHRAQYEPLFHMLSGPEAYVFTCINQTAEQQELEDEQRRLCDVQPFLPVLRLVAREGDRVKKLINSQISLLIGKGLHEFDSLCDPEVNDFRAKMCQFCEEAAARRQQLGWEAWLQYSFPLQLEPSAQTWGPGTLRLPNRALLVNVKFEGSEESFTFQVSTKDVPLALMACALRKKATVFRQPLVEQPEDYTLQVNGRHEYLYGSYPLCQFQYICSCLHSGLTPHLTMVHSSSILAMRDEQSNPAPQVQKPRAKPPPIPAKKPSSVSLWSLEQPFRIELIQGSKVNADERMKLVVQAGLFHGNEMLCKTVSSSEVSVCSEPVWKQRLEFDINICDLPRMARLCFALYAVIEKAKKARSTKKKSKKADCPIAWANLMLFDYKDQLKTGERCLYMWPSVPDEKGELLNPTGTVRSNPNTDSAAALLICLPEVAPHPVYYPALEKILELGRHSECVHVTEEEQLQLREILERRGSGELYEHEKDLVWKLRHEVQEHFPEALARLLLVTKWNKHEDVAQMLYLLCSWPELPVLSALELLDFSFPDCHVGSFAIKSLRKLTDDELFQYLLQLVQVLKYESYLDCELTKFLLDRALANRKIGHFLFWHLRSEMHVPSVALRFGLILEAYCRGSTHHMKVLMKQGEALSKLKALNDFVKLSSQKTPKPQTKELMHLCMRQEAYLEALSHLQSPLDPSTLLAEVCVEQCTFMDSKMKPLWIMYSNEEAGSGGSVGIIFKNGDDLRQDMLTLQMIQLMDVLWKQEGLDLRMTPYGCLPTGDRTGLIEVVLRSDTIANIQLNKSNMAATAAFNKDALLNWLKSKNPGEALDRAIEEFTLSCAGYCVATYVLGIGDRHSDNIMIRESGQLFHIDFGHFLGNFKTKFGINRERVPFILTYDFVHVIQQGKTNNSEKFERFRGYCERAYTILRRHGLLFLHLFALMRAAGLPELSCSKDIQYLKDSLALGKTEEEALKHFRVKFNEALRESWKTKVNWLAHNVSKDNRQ
PI3Kdelta, sequence (P27986 whole entry partner, species assumed): as the sequence (P27986 whole entry partner, species assumed) above
PI3Kgamma, sequence (P48736 whole entry, species assumed): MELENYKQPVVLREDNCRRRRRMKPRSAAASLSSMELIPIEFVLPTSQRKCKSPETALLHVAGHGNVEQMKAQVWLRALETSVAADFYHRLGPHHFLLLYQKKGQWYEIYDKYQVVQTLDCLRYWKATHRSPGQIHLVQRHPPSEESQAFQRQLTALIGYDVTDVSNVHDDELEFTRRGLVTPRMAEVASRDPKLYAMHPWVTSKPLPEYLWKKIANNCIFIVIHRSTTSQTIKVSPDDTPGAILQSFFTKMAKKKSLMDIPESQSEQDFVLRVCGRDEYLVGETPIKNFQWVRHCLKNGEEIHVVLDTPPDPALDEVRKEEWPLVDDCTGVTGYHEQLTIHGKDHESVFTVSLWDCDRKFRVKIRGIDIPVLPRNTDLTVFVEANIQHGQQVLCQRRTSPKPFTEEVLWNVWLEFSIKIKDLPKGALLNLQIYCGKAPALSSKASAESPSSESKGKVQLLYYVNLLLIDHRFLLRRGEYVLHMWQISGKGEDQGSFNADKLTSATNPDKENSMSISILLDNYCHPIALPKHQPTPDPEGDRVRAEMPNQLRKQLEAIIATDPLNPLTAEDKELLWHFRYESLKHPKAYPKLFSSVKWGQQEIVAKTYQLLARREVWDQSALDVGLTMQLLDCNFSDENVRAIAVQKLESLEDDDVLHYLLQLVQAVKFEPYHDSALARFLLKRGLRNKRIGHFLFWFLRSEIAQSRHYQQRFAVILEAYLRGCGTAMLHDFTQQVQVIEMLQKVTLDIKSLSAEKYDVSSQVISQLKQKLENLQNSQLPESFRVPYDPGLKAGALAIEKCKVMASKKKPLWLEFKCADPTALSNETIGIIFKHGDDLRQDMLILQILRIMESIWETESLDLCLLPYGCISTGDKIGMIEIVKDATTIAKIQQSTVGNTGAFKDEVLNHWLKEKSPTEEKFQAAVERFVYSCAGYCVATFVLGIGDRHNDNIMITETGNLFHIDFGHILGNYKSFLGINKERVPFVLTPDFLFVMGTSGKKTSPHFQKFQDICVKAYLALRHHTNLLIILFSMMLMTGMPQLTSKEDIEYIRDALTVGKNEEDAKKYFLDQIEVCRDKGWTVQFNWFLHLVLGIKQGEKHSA

Row | Structure (SMILES) | Absolute IC40 (growth inhibition 40%) (HEC-116 cells) | Absolute IC40 (growth inhibition 40%) (PC-3 cells) | selectivity over mTOR (mTOR [1]) | selectivity over PI3Kdelta (PI3Kdelta) | inhibition of 294 other kinases (294 other kinases) | selectivity over PI3Kalpha (PI3Kalpha) | selectivity over PI3Kgamma (PI3Kgamma) | inhibition of mTOR (mTOR [2])
1 | Cc1nc(NC(=O)N2CCC[C@H]2C(N)=O)sc1-c1ccnc(C(C)(C)C(F)(F)F)c1 [compound (II), (2S)-N1-[4-Methyl-5-[2-(2,2,2-trifluoro-1,1-dimethylethyl)-4-pyridinyl]-2-thiazolyl]-1,2-pyrrolidinedicarboxamide] | 8,630 nM | 14,700 nM |  |  |  |  |  | 
2 | Cc1c(Cn2c(C)nc3c(C(=O)O)cc(N4CCOCC4)cc32)cccc1C(F)(F)F [compound (III)] |  |  | > 1000 fold | 12 fold | less than 30% | > 1000 fold | > 1000 fold | 
3 | C[C@H]1Cc2ccccc2N1C(=O)Cc1nc(N2CCOCC2)cc(=O)[nH]1 [compound (I), 2-{2-[(2S)-2-methyl-2,3-dihydro-1H-indol-1-yl]-2-oxoethyl}-6-(morpholin-4-yl)pyrimidin-4(3H)-one] | 12,400 nM | 20,200 nM |  |  |  |  |  | not inhibit
